# Results as given in patent US20250136584A1, “Benzimidazole Or Azabenzimidazole Compound, Preparation Method Therefor And Use Thereof” (Chengdu Di'Ao Jiuhong Pharmaceutical Factory, priority 2022, published 2025).
# Columns and labels:
# GLP1R = GLP1R (Homo sapiens, UniProt P43220); assay: Agonist activity on GLP1R/CRE-LUC HEK293 cells (luciferase reporter, ONE-Glo); format: cell-based
# Protocol: Logarithmically growing GLP1R/CRE-LUC HEK293 cells (purchased from Nanjing Cobioer) were digested, the digested cells were re-suspended in a DMEM+10% FBS culture medium, and a cell density was adjusted to be 3.5*10^5/mL. The cell solution was added into a 96-well cell culture plate by 100 µL/well, and the plate was cultured overnight in an incubator (37° C., 5% CO2).
# A compound was dissolved with DMSO to prepare a storage solution at an initial concentration of 10 mM, an initial concentration of the small molecular compound was 0.2 mM, and the compound was diluted by 3 times and 10 points were diluted, while the 11th point was DMSO. Another 96-well plate was taken, added with 95 μL of cell culture solution (DMEM+10% FBS) in each well, then added with 5 μL of to-be-tested samples at different concentrations in each well, mixed evenly, and then added with 11 μL of to-be-tested samples at different concentrations in each well of the cell culture plate, and each sample had two wells. The culture plate was incubated in an incubator for 6 hours (37° C., […]). The 96-well cell culture plate was taken out, added with 100 μL of ONE-Glo™ reagent in each well, and incubated at room temperature for 10 minutes, and a chemiluminescence signal value was measured with an enzyme-labeled instrument. Data were processed and analyzed by Microsoft Excel and Graphpad Prism6 to obtain an EC50 value of the compound.
# hGLP1R mice = assay: Glucose tolerance test in hGLP1R mice after single oral administration; format: in vivo; details: 1 mg/kg oral once
# Protocol: Genetically engineered hGLP1R mice, male, purchased from Biocytogen Jiangsu Gene Biotechnology Co., Ltd., were fasted overnight before the glucose tolerance test (IPTGG), without water deprivation. A solvent or corresponding compound was orally administered once, a glucose solution (2 g/kg) was intraperitoneally injected 60 minutes after administration, and a blood glucose value before administration of glucose (equivalent to a blood glucose value of 0 minute) and blood glucose values 15 minutes, 30 minutes, 60 minutes and 120 minutes after administration of glucose were measured. The solvent was 5% DMSO+40% PEG400+55% physiological saline, and a dosage of the compound was 1 mg/kg (n=3).
# hERG potassium channel = target: T1, hERG potassium channel (Homo sapiens, UniProt Q12809); assay: hERG test, patch clamp on HEK-293 cells stably expressing hERG potassium channel; format: cell-based; details: HEK-293 cell line stably expressing hERG, read-out: IC50 (μM) of inhibitory effect on hERG potassium channel current
# T1 construct: host or cells: HEK-293 stably expressing hERG
# T1 sequence (Q12809 whole entry): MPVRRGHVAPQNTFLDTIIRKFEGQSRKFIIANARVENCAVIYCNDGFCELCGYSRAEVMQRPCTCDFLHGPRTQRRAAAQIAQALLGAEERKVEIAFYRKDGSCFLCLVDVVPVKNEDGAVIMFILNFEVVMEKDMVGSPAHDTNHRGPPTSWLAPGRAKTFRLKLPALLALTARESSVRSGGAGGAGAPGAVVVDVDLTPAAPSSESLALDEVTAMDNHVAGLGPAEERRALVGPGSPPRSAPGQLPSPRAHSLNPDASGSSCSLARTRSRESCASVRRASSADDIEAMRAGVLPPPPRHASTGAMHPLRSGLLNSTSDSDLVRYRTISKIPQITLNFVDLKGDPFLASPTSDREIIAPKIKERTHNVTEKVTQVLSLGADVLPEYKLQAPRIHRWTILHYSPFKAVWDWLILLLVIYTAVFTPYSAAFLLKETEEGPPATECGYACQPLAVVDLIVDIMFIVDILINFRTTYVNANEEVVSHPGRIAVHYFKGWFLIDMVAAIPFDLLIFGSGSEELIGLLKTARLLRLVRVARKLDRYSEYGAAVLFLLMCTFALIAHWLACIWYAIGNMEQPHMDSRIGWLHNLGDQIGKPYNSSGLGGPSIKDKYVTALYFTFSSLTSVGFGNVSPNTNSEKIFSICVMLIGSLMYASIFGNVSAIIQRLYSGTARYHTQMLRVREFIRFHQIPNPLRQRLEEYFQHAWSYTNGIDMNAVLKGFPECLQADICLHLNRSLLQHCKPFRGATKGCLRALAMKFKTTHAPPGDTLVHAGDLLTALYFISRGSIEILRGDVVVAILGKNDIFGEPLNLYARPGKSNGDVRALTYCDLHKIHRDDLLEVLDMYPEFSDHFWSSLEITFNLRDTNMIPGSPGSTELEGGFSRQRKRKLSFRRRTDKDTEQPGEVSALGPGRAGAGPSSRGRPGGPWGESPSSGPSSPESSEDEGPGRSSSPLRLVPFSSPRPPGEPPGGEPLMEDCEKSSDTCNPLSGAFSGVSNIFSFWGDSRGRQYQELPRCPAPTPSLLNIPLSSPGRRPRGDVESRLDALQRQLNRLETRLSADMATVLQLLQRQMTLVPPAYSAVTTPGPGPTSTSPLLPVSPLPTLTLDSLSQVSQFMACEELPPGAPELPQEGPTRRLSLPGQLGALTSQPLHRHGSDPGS
# Protocol: Test object: influences of compounds on an hERG potassium channel current were tested by a full-automatic patch clamp method.
# • (1) An HEK-293 cell line stably expressing an hERG potassium channel was adopted, and hERG potassium channel cells were purchased from Creacell Company. • (2) The HEK-293 cell line stably expressing the hERG potassium channel was cultured in a DMEM culture medium containing 10% fetal bovine serum and 0.8 mg/mL G418 at 37° C. under a carbon dioxide concentration of 5%. • (3) Cell passage: the old culture medium was removed, and the cells were washed once with PBS, then added with 1 mL of TrypLE™ Express solution, and incubated at 37° C. for about 0.5 minutes. When the cells were separated from a dish bottom, about 5 mL of complete culture medium preheated at 37° C. was added. A cell suspension was gently blown with a straw to separate the aggregated cells. The cell suspension was transferred to a sterile centrifuge tube and centrifuged at 1000 rpm for 5 minutes to collect the cells. In amplification or maintenance of culture, the cells were inoculated into a 6 cm cell culture dish, and the number of cells inoculated into each cell culture dish was 2.5×10^5 cells (final volume: 5 mL). In order to maintain an electrophysiological activity of cells, a cell density should not exceed 80%. • (4) In patch clamp detection, before the test, the cells were separated by TrypLE™ Express, and 4×10^3 cells were spread on a cover slip and cultured in a 24-well plate (final volume: 500 μL). After 18 hours, the test was carried out for detection. Data analysis:
# A current after an effect of each drug concentration and a blank control current
# were standardized first, and then an inhibition rate
# corresponding to each drug concentration was calculated. A mean number and a standard error were calculated for each concentration, and a semi-inhibitory concentration of each compound was calculated by the following equation: […]
# A dosage-dependent effect was nonlinearly fitted by the above equation, wherein C represented a concentration of a test sample, IC50 represented a semi-inhibitory concentration, and h represented a Hill coefficient. Curve fitting and IC50 calculation were completed by IGOR software.
# [1] = Pharmacokinetic studies in SD rats; format: in vivo; details: Sprague-Dawley (SD), rat, plasma
# GLP1R, sequence (P43220 24-463): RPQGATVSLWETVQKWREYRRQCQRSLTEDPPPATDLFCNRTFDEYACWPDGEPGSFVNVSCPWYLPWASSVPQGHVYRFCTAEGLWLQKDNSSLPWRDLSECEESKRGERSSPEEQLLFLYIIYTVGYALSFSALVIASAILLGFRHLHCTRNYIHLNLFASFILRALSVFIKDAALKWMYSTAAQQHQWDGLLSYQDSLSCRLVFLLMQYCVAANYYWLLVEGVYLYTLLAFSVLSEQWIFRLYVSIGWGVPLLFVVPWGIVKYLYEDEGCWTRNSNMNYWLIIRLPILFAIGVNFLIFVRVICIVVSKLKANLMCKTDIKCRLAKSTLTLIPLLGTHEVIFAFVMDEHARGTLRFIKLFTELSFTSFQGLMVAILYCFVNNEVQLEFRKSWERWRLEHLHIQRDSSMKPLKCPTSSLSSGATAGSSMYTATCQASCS
smiles,measurement,setting,value
O=C(O)c1ccc2nc(Cc3ccc(-c4ccc(F)c(OCc5ccc(Cl)c6cc(Cl)oc56)n4)cc3F)n(C[C@@H]3CCO3)c2c1 [Compound 100],EC50,"GLP1R; GLP1R/CRE-LUC HEK293 cells, 6 hours incubation, chemiluminescence signal",2.02 nM
same,"activity compared with comparative example compounds PF-06882961, DB02, DB03 and DB06","GLP1R; from Table 1, also much higher than DB04 and DB05",higher
same,onset of blood glucose reduction compared with comparative example compound DB03,hGLP1R mice; FIG. 3 and FIG. 4,took effect more quickly
same,blood glucose reduction effect compared with PF-06882961,"hGLP1R mice; glucose 2 g/kg i.p. 60 minutes later, blood glucose curves and AUC (0 to 120 minutes)",significantly better
same,blood glucose reduction effect compared with comparative example compound DB03,"hGLP1R mice; blood glucose curves and AUC (0 to 120 minutes), FIG. 3 and FIG. 4",absolutely better
same,IC50,hERG potassium channel,> 30 µM
same,half-life,[1],6 to 10 h
